Data from patent US4450269A, “Mono-5-substituted-3-chloro-4H-1,2,6-thiadiazin-4-one antifungal agents” (FMC Corporation, priority 1980, dated 1984).
Counter-ions that a name gives are not always drawn. Like-named read-outs stand apart in the source and are kept apart here.

Assays:
[1] = system: Pyricularia oryzae; format: cell-based; conditions: PO, 48 hours
[2] = system: Phytophthora infestans; experiment: whole plant or invertebrate; format: in vivo; conditions: for pest or weed control at 150 ppm: Phytophthora infestans, in Solanum lycopersicum, foliar, read-out: Percent Disease Control, foliar, tomato late blight, 150 ppm, protective
[3] = system: Pyricularia oryzae; experiment: whole plant or invertebrate; format: in vivo; conditions: for pest or weed control at 150 ppm: Pyricularia oryzae, foliar, 24 h, read-out: Percent Disease Control, curative, rice blast, 150 ppm, 24 hours after inoculation

SMILES | Spore Germination Rating ([1]; 1.0 ppm) | Spore Germination Rating ([1]; 2.5 ppm) | Spore Germination Rating ([1]; 10 ppm) | Spore Germination Rating ([1]; 40 ppm) | pest or weed control at 150 ppm [2] [%] | pest or weed control at 150 ppm [3] [%] | Spore Germination Rating ([1]; 2.5 ppm, hydrochloride) | Percent Disease Control, foliar, tomato late blight ([2]; 150 ppm, protective, hydrochloride) [%] | Percent Disease Control, curative, rice blast ([3]; 150 ppm, 24 hours after inoculation, hydrochloride) [%]
Cc1ccccc1Oc1nsnc(Cl)c1=O [Compound 22, 3-chloro-5-(2-methylphenoxy)-4H--1,2,6-thiadiazin-4-one] | 2 (40-60) | 0 (0-10) | 0 (0-10) | 0 (0-10) | 0 | 0 | – | – | –
O=C(Nc1ccccc1)Nc1ccc(Oc2nsnc(Cl)c2=O)cc1 [Compound 29, 3-chloro-5-[4-(3-phenylureido)-phenoxy]-4H--1,2,6-thiadiazin-4-one] | 4 (80-100) | 4 (80-100) | 4 (80-100) | 2 (40-60) | 100 | 0 | – | – | –
CCCCOc1ccc(Oc2nsnc(Cl)c2=O)cc1 [Compound 6, 3-chloro-5-(4-n-butoxyphenoxy)-4H--1,2,6-thiadiazin-4-one] | 2 (40-60) | 1 (10-40) | 2 (40-60) | 0 (0-10) | 0 | 0 | – | – | –
Cc1ccc(Oc2nsnc(Cl)c2=O)c(C)c1 [Compound 23, 3-chloro-5-(2,4-dimethylphenoxy)-4H--1,2,6-thiadiazin-4-one] | 4 (80-100) | 0 (0-10) | 0 (0-10) | 0 (0-10) | 0 | 0 | – | – | –
Nc1ccc(Oc2nsnc(Cl)c2=O)cc1 [Compound 27, 5-(4-aminophenoxy)-3-chloro-4H--1,2,6-thiadiazine-4-one hydrochloride] | – | – | – | – | – | – | 0 (0-10) | 98 | 95
O=c1c(Cl)nsnc1Oc1ccc([N+](=O)[O-])cc1Cl [Compound 53, 3-chloro-5-(2-chloro-4-nitrophenoxy)-4H--1,2,6-thiadiazin-4-one] | 2 (40-60) | 0 (0-10) | 0 (0-10) | 0 (0-10) | 98 | 0 | – | – | –
CC(=O)Nc1cccc(Oc2nsnc(Cl)c2=O)c1 [Compound 42, 3-[(3-N--acetylamino)-phenoxy]-5-chloro-4H--1,2,6-thiadiazin-4-one] | 4 (80-100) | 4 (80-100) | 3 (60-80) | 0 (0-10) | 0 | 0 | – | – | –
COc1ccc(Oc2nsnc(Cl)c2=O)cc1 [Compound 5, 3-chloro-5-(4-methoxyphenoxy)4H--1,2,6-thiadiazin-4-one] | 4 (80-100) | 1 (10-40) | 0 (0-10) | 0 (0-10) | 0 | 75 | – | – | –
O=c1c(Cl)nsnc1Oc1ccccc1Cl [Compound 14, 3-chloro-5-(2-chlorophenoxy)-4H--1,2,6-thiadiazin-4-one] | 3 (60-80) | 0 (0-10) | 0 (0-10) | 0 (0-10) | 0 | 0 | – | – | –
O=c1c(Cl)nsnc1Oc1ccccc1 [Compound 2, 3-chloro-5-phenoxy-4H--1,2,6-thiadiazin-4-one] | 3 (60-80) | 1 (10-40) | 0 (0-10) | 0 (0-10) | 0 | 0 | – | – | –
CS(=O)(=O)c1ccc(Oc2nsnc(Cl)c2=O)cc1 [Compound 41, 3-chloro-5-[(4-methylsulfonyl)phenoxy]-4H--1,2,6-thiadiazin-4-one] | 4 (80-100) | 3 (60-80) | 0 (0-10) | 0 (0-10) | 90 | 0 | – | – | –
O=C(OCc1ccccc1)Oc1ccc(Oc2nsnc(Cl)c2=O)cc1 [Compound 38, 3-chloro-5-[4-(phenylmethoxycarbonyloxy)phenoxyl]-4H-1,2,6-thiadiazin-4-one] | 4 (80-100) | 3 (60-80) | 2 (40-60) | 2 (40-60) | 0 | 0 | – | – | –
Cc1cccc(C)c1Oc1nsnc(Cl)c1=O [Compound 24, 3-chloro-5-(2,6-dimethylphenoxy)-4H--1,2,6-thiadiazin-4-one] | 3 (60-80) | 0 (0-10) | 0 (0-10) | 0 (0-10) | 98 | 95 | – | – | –
O=c1c(Cl)nsnc1Oc1ccc(Br)cc1 [Compound 15, 3-chloro-5-(4-bromophenoxy)-4H--1,2,6-thiadiazin-4-one] | 0 (0-10) | 1 (10-40) | 0 (0-10) | 0 (0-10) | 100 | 95 | – | – | –
O=c1c(Cl)nsnc1Oc1ccccc1Br [Compound 34, 3-chloro-5-(2-bromophenoxy)-4H-1,2,6,-thiadiazin-4-one] | 1 (10-40) | 0 (0-10) | 0 (0-10) | 0 (0-10) | 0 | 0 | – | – | –
